Values of other authors, collected in the CATMoS acute toxicity set (Mansouri et al. 2021).
Several values for one entry are separate records, joined by “and”; a condition that tells them apart may be missing. Identical values can stand only once.

Experiment: rat acute oral toxicity
Conditions: in vivo
Source text: […]The data set underlying the modeling effort for this project was initially compiled by NICEATM and U.S. EPA’s CCTE. Briefly, LD50 data were collected from rat acute oral systemic toxicity tests, including limit tests, ranges/confidence intervals, and discrete LD50 values. The full data set included 21,200 LD50 entries for 15,688 substances. […] Data were reviewed to ensure that LD50 values with obvious errors in the extracted data such as unit conversion errors (e.g., comma and decimal separator misplacements) were either fixed or removed. After this review, 16,209 LD50 values remained. Many of the chemicals represented had multiple LD50 entries, requiring that a single representative value per Chemical Abstracts Service Registry Number (CASRN) identifier be defined to facilitate modeling efforts. Based on ATWG feedback and to define the representative LD50 as a protective value while accounting for the distribution across multiple LD50s, the median of the lowest quartile was computed using only discrete LD50 values (omitting limit test data and range and confidence interval data). A detailed summary of the data compilation is available online on the NICEATM webpage dedicated to the collaborative modeling project (NTP 2020).
[…][…] For categorical designations, limit test and range/confidence interval LD50 data were integrated wherever possible. As such, the number of chemicals with end point values/calls varies across the modeling end points (Table 3) based on whether chemicals had representative LD50 values and/or other data. If a chemical had both, the representative value was used to determine categorical calls rather than limit test data. Some data were useable only for certain end points and categories depending on the thresholds. For example, ranges that spanned multiple hazard categories were considered only for the binary (very toxic/nontoxic) end points and omitted from rendering a determination for hazard category assignment.
[…]The final data set comprising 11,992 chemicals was split into training and evaluation sets […], respectively. This process was performed semirandomly by ordering chemicals based on the five end points (categorical and continuous LD50 values) and partitioning every fourth record into the evaluation set accordingly. This approach was taken to ensure an equivalent distribution of the LD50 values and the different hazard categories between the training and the evaluation sets without supervised sampling of the chemicals based on structures (Figure 1A). The sources of the chemical structures were also kept equivalent between the two sets, with chemical structures obtained from DSSTox, being the highest quality, representing over 75% of each set (Figure 1B).

SMILES | LD50
CN1C(=O)CN=C(c2ccccc2F)c2cc([N+](=O)[O-])ccc21 | 415 mg/kg
CC(C)CNC(=O)NS(=O)(=O)c1ccc(Cl)cc1 | 1100 mg/kg
CN1c2ccccc2Sc2ccc(CC(=O)O)cc21 | 495 mg/kg
C1COCCOCCOCCOCCO1 | 1410 mg/kg
CN(c1ccc(F)cc1F)c1c([N+](=O)[O-])cc([N+](=O)[O-])cc1C(F)(F)F | 250 mg/kg
CCN(CCC(=O)OC)c1ccccc1 | 2450 mg/kg
Clc1cnn(CCCCN2CCN(c3ncccn3)CC2)c1 | 374 mg/kg
CCOC(=S)SSSSC(=S)OCC | 275 mg/kg
C=CSC=C | 170 mg/kg
CCCCn1c2ccccc2c2cc(N)ccc21 | 946 mg/kg
COP(=S)(OC)SCC(N)=O | 925 mg/kg
CON(C(=O)CSP(=S)(OC)OC)C(C)C | 260 mg/kg
CCOP(=S)(Oc1ccc(C#N)cc1)c1ccccc1 (centres undefined) | 28.5 mg/kg
CCO[Si](C)(C)CCl | 1550 mg/kg
O=S(=O)(O)c1cc(Cl)ccc1C=Cc1ccc(-n2nc3cc(S(=O)(=O)O)c4ccccc4c3n2)cc1S(=O)(=O)O | 13700 mg/kg
OCCC(F)(F)C(F)(F)C(F)(F)C(F)(F)C(F)(F)C(F)(F)F | 1750 mg/kg
CNC(=O)Oc1ccccc1OC(CCl)OC (centres undefined) | 35.4 mg/kg
CSC(=N)N | 800 mg/kg
O=c1[nH]c2ccccc2n1CCCN1CCN(C(c2ccccc2)c2ccccc2)CC1 | 1410 mg/kg
CCOC1Oc2ccc(OS(C)(=O)=O)cc2C1(C)C (centres undefined) | 1130 mg/kg
O=[N+]([O-])c1ccc(NS(=O)(=O)c2ccc(Cl)c(C(F)(F)F)c2)c(Cl)c1 | 132 mg/kg
CCCCC(CC)COC(CBr)c1ccc(Cl)c(Cl)c1 (centres undefined) | 250 mg/kg

SMILES | LD50
CCOC(=O)C=Cc1ccccc1 | 4000 mg/kg
CCOC(=O)c1c(N)sc2c1CCN(Cc1ccccc1)C2 | 1200 mg/kg
CN(C)N | 122 mg/kg and 196 mg/kg
OCCOCCN1CCN(C(c2ccccc2)c2ccccc2)CC1 | 840 mg/kg
C/C=C/C(=O)OCC | 3000 mg/kg
C=CCc1ccccc1OCC(O)CNC(C)C (centres undefined) | 590 mg/kg
CN1C2CCC1CC(OC(=O)C(C)(CO)c1ccccc1)C2 (centres undefined) | 1100 mg/kg
CCN(CC)C(=O)CCl | 500 mg/kg
CCO[Si](CCCS)(OCC)OCC | 6110 mg/kg
C=CC(=O)OCCOCC | 1070 mg/kg
c1ccc(C2(c3ccccc3)CC2C2=NCCN2)cc1 (centres undefined) | 359 mg/kg
CCC(C(=O)OCCOCCN(CC)CC)c1ccccc1 (centres undefined) | 4160 mg/kg
Clc1ccc(OCOc2ccc(Cl)cc2)cc1 | 5800 mg/kg
CCOP(=O)(O)Sc1ccc(C)cc1 | 50 mg/kg
Cc1c(Cl)c(=O)oc2cc(OP(=O)(OCC(C)Cl)OCC(C)Cl)ccc12 (centres undefined) | 686 mg/kg
CC[N+]1(CCOC(=O)C(O)(c2ccccc2)c2ccccc2)CCCCC1 | 4600 mg/kg
CC(C)(C)NCC(O)c1cc(Cl)c(N)c(Cl)c1 (centres undefined) | 159 mg/kg
COc1ccc2c(c1)OC(C)(C)C(c1ccccc1)=C2c1ccc(OCCO)cc1 | 500 mg/kg
CCC(=O)CC | 2140 mg/kg
OCCI | 50 mg/kg
CCC(C)C(CN(C)C)c1cc(F)ccc1OC (centres undefined) | 300 mg/kg
CCCOCCOC(=O)C1=C(C)NC(C)=C(C(=O)OCCOCCC)C1c1cccc([N+](=O)[O-])c1 | 1470 mg/kg

SMILES | LD50
CN(C)CCCC(CCc1ccc2c(c1)OCO2)CCc1ccc2c(c1)OCO2 | 1230 mg/kg
O=C1C(Cl)C2(Cl)C3C(Cl)OC(Cl)C3C1(Cl)C2(Cl)Cl (centres undefined) | 7 mg/kg
C1COCCO1 | 4200 mg/kg
CCN(CC)C(=O)c1ccccc1C | 1210 mg/kg
CNC(=O)Oc1cc(C(C)C)ccc1C | 250 mg/kg
CCCCOC(=O)CCC(=O)OCCCC | 8000 mg/kg
O=C(Cl)c1ccc(Oc2ccc(C(=O)Cl)cc2)cc1 | 8700 mg/kg
CNC(=O)Nc1ccccc1 | 3440 mg/kg
CC(=O)C(N=Nc1cc(Cl)c(-c2cc(Cl)c(N=NC(C(C)=O)C(=O)Nc3ccc(C)cc3C)cc2Cl)cc1Cl)C(=O)Nc1ccc(C)cc1C (centres undefined) | 2230 mg/kg
NC(N)=Nc1nc(CSCCC(N)=NS(N)(=O)=O)cs1 | 4050 mg/kg
ClCc1cccc2ccccc12 | 890 mg/kg
OCCCCC(O)CO (centres undefined) | 15500 mg/kg
CCCCSc1nc2ccccc2s1 | 1270 mg/kg
N#CSCCSC#N | 50 mg/kg
O=S(=O)(O)c1ccc2c(c1)-c1nc-2nc2[nH]c(nc3nc(nc4[nH]c(n1)c1ccccc41)-c1ccccc1-3)c1ccccc21 | 3600 mg/kg
CNC(=O)ON=C1SCCOC1C (centres undefined) | 6 mg/kg
O=S(=O)(Cl)c1ccccc1Cl | 7500 mg/kg
Cc1ccc(C(=O)CC(=O)C(F)(F)F)cc1 | 300 mg/kg
Nc1ccccc1Cl | 1020 mg/kg
c1ccc2c(c1)Sc1ccccc1N2CC1CN2CCC1CC2 (centres undefined) | 245 mg/kg
